Measurements reported in ChEMBL document CHEMBL3593161, “Discovery of potent and selective nonplanar tankyrase inhibiting nicotinamide mimics” (Bioorg Med Chem, 2015).
Values joined by “and” are separate entries in the source; they are usually repeats but may differ in a detail not shown here. Identical values can stand only once.

What was measured:
[1] = molecular target: T1, Poly [ADP-ribose] polymerase tankyrase-2 (Homo sapiens, UniProt Q9H2K2)
T1 sequence (Q9H2K2 whole entry): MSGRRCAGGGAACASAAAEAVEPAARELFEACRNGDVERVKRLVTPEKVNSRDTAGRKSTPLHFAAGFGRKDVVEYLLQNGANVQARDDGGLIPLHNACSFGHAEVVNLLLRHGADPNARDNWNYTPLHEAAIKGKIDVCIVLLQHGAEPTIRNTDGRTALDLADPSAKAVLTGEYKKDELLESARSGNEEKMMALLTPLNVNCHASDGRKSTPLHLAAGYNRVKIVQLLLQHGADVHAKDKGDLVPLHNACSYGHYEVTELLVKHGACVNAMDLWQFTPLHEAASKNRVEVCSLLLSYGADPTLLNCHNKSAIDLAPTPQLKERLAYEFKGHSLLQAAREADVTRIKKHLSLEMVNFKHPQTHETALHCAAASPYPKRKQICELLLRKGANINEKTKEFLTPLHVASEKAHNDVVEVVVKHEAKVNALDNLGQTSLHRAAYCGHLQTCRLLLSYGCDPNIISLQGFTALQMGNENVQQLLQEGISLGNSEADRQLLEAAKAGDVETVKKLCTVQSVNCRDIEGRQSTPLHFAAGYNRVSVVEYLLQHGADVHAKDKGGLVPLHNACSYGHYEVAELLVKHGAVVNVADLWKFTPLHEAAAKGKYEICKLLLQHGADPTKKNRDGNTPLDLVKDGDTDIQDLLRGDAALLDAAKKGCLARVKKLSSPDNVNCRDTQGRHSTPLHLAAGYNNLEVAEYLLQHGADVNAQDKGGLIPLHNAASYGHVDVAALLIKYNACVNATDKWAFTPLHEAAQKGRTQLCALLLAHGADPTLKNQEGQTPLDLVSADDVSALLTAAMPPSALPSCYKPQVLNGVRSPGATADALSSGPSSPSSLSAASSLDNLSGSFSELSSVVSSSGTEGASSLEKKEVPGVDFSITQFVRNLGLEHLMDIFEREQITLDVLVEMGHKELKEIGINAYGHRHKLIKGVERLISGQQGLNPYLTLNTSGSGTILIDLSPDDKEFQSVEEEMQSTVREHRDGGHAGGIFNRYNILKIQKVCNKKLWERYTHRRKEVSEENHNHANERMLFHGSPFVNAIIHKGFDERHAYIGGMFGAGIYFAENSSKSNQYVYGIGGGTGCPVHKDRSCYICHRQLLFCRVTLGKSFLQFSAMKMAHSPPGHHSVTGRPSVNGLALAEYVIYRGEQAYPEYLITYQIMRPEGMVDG
Description: Inhibition of human TNKS2 (956 to 1161 and 873 to 1161) using 500 nM NAD substrate after 20 mins incubation by fluorescence assay

[2] = molecular target: Poly [ADP-ribose] polymerase 2 (Homo sapiens, UniProt Q9UGN5); assay: Inhibition of full-length human ARTD2 using 500 nM NAD substrate after 3 hrs incubation
[3] = molecular target: T2, Poly [ADP-ribose] polymerase tankyrase-1 (Homo sapiens, UniProt O95271); assay: Inhibition of human TNKS1 (1030 to 1317) using NAD substrate after 20 mins incubation by fluorescence assay
T2 sequence (O95271 whole entry): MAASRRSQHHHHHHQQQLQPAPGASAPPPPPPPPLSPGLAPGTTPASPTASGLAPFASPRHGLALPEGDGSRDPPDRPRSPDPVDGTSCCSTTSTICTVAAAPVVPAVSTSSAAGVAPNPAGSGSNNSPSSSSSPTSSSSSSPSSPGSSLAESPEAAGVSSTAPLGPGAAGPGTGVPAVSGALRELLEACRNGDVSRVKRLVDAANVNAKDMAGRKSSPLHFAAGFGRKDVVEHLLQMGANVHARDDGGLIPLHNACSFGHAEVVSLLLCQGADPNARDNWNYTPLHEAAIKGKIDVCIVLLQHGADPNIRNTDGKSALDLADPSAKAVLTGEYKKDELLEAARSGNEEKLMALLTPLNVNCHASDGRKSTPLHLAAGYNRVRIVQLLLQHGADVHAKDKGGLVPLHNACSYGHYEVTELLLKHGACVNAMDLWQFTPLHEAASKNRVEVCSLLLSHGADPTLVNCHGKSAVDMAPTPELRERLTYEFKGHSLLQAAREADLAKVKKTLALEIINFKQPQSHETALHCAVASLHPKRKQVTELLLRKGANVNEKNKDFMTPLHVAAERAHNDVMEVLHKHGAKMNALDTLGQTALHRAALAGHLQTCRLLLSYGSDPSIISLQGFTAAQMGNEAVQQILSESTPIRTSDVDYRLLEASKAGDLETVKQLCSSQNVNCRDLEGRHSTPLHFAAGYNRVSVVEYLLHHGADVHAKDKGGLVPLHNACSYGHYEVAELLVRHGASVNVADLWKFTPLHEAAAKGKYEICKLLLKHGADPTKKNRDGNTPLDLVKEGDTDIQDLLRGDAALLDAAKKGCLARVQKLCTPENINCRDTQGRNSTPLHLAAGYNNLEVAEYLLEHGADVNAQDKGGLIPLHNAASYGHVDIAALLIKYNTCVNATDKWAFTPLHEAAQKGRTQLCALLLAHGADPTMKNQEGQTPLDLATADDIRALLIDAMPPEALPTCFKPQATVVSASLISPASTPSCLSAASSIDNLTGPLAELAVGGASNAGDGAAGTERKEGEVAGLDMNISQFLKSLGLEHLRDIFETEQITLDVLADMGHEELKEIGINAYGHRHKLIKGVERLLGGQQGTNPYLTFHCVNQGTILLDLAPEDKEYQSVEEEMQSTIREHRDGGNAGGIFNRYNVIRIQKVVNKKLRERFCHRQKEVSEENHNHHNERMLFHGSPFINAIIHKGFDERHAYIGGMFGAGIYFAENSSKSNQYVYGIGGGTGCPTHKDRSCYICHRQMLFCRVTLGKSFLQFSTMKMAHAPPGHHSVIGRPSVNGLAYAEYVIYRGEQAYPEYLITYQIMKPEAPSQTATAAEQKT

[4] = molecular target: T3, Protein mono-ADP-ribosyltransferase PARP15 (Homo sapiens, UniProt Q460N3); assay: Inhibition of human ARTD7 (460 to 656) using 250 nM NAD substrate after 2 hrs incubation
T3 sequence (Q460N3 whole entry): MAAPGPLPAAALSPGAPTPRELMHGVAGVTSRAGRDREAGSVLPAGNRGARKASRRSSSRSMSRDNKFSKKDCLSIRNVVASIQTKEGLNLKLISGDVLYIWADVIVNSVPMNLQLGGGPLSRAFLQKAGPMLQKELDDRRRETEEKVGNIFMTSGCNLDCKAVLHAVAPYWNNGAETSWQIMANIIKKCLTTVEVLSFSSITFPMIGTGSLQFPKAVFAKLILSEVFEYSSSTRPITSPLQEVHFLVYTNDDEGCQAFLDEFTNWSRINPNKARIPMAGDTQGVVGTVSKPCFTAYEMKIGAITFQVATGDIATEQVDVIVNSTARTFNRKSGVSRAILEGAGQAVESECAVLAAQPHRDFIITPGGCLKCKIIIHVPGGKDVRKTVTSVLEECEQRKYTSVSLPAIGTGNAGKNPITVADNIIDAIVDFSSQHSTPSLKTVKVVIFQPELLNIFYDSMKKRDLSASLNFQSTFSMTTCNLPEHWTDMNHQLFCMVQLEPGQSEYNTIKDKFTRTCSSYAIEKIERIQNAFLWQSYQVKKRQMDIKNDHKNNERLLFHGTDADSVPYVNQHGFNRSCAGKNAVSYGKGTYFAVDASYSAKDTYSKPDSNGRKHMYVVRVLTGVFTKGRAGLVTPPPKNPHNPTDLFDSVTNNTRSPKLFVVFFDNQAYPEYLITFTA

[5] = molecular target: Protein mono-ADP-ribosyltransferase PARP4 (Homo sapiens, UniProt Q9UKK3); assay: Inhibition of human ARTD4 (250 to 565) using 500 nM NAD substrate after 2.5 hrs incubation
HEK293 = assay: Cytotoxicity against HEK293 cells assessed as cell viability at 2.5 to 10 uM; format: cell-based; conditions: human, hek293, 10 µM
[6] = molecular target: T4, Protein mono-ADP-ribosyltransferase PARP10 (Homo sapiens, UniProt Q53GL7); assay: Inhibition of human ARTD10 (809 to 1017) using 500 nM NAD substrate after 2.5 hrs incubation
T4 sequence (Q53GL7 whole entry): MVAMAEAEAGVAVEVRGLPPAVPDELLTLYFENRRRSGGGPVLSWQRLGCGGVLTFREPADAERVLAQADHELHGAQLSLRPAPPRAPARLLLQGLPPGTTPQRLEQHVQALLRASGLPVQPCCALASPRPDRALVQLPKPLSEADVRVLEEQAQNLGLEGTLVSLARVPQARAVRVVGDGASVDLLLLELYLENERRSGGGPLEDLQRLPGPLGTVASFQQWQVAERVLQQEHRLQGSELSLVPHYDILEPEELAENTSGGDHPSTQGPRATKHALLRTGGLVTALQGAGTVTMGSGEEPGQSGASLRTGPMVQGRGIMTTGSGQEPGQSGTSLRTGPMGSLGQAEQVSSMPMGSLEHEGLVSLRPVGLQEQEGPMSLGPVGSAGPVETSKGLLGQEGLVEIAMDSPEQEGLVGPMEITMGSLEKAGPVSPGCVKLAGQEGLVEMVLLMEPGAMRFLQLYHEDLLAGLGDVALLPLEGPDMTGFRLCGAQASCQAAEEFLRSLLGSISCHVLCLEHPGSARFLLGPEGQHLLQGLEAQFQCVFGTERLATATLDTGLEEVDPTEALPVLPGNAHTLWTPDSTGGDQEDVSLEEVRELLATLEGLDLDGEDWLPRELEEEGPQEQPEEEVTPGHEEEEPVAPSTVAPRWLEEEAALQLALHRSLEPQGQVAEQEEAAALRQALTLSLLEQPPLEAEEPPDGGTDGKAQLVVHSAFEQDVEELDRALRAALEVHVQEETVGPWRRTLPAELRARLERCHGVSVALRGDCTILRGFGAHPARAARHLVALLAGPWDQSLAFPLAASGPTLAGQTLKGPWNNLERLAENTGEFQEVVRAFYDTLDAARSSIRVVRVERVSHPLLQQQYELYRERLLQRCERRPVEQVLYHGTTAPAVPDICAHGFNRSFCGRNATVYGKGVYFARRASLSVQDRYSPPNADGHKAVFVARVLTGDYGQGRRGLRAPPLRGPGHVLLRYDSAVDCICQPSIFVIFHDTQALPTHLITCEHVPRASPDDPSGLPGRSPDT

[7] = molecular target: Poly [ADP-ribose] polymerase 1 (Homo sapiens, UniProt P09874); assay: Inhibition of full-length human ARTD1 using 500 nM NAD substrate after 1 hr incubation
[8] = molecular target: T5, Protein mono-ADP-ribosyltransferase PARP3 (Homo sapiens, UniProt Q9Y6F1); assay: Inhibition of full-length human ARTD3 using 500 nM NAD substrate after 1 hrs incubation
T5 sequence (Q9Y6F1 whole entry): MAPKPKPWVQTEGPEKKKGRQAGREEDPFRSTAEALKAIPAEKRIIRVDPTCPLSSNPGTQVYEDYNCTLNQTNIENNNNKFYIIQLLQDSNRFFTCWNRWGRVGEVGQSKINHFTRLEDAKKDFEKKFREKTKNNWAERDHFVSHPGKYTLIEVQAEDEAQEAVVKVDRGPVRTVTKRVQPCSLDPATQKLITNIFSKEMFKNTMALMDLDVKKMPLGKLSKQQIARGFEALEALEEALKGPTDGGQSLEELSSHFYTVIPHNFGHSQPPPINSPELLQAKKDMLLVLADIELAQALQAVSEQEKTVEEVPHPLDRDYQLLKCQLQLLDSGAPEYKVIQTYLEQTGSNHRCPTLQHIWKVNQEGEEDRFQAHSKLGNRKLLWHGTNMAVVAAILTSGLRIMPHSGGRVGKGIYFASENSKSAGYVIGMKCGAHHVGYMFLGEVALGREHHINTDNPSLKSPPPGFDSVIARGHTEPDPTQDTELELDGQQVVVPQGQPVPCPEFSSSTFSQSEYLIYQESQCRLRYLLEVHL

[9] = molecular target: T4, Protein mono-ADP-ribosyltransferase PARP10; assay: Inhibition of human ARTD10 (809 to 1017) using 500 nM NAD substrate at 10 uM after 2.5 hrs incubation
[10] = molecular target: T3, Protein mono-ADP-ribosyltransferase PARP15; assay: Inhibition of human ARTD7 (460 to 656) using 250 nM NAD substrate at 10 uM after 2 hrs incubation

Protein mono-ADP-ribosyltransferase PARP4, sequence (Q9UKK3 whole entry): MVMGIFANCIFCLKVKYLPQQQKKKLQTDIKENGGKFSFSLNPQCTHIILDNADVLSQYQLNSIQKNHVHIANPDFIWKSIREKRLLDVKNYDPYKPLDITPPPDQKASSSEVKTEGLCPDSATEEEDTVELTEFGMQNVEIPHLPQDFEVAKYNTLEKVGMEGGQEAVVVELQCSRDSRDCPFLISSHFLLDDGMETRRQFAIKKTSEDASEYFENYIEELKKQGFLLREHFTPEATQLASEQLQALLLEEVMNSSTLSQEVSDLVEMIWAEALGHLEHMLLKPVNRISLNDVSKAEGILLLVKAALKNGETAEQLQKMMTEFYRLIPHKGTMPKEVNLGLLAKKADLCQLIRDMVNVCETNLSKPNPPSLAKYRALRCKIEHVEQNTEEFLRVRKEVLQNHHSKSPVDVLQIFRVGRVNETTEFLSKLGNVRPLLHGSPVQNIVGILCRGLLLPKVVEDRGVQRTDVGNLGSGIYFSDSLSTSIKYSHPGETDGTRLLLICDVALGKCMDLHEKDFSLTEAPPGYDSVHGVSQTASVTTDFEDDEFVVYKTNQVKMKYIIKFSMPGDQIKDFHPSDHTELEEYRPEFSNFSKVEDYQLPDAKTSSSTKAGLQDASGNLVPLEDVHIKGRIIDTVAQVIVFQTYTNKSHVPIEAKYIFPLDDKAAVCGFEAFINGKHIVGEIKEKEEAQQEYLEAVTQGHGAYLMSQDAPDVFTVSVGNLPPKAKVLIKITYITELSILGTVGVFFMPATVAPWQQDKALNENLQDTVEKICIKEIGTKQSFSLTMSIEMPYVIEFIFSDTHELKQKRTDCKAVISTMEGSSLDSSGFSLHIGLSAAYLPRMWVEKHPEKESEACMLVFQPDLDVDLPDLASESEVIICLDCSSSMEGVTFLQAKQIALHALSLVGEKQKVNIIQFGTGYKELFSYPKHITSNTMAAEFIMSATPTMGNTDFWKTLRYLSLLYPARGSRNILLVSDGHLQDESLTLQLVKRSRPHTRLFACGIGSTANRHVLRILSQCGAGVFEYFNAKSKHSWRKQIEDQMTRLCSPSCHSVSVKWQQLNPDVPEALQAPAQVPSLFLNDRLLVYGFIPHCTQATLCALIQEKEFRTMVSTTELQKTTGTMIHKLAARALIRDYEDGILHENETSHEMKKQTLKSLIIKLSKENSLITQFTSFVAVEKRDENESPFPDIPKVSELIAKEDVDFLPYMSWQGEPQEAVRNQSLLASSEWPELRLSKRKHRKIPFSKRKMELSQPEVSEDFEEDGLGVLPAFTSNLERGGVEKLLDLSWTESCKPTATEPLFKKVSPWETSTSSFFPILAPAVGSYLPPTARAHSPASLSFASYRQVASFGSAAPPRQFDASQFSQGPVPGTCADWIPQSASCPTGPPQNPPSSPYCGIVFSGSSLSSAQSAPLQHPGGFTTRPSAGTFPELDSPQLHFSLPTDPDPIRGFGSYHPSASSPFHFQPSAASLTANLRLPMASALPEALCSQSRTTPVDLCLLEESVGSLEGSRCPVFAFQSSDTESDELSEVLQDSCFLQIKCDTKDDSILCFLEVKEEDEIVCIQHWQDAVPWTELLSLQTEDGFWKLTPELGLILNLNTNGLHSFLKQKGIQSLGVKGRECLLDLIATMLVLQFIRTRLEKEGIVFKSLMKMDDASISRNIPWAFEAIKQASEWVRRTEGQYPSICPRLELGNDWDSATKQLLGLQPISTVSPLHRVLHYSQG
Poly [ADP-ribose] polymerase 2, sequence (Q9UGN5 whole entry): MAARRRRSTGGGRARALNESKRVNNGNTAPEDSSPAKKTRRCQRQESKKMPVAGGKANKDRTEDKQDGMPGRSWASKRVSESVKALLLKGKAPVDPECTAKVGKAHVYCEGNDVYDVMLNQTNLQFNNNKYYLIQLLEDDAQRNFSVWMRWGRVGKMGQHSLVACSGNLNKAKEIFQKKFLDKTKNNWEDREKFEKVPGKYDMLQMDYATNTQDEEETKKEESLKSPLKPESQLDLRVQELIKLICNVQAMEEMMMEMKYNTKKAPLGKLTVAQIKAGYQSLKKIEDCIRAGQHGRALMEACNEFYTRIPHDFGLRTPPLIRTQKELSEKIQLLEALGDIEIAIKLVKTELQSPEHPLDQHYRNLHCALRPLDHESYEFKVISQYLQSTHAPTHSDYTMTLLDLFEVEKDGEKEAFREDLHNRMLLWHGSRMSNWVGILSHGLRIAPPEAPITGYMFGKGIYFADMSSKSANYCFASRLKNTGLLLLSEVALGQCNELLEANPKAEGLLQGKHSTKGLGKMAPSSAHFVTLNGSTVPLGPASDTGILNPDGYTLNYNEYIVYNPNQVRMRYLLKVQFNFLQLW
Poly [ADP-ribose] polymerase 1, sequence (P09874 whole entry): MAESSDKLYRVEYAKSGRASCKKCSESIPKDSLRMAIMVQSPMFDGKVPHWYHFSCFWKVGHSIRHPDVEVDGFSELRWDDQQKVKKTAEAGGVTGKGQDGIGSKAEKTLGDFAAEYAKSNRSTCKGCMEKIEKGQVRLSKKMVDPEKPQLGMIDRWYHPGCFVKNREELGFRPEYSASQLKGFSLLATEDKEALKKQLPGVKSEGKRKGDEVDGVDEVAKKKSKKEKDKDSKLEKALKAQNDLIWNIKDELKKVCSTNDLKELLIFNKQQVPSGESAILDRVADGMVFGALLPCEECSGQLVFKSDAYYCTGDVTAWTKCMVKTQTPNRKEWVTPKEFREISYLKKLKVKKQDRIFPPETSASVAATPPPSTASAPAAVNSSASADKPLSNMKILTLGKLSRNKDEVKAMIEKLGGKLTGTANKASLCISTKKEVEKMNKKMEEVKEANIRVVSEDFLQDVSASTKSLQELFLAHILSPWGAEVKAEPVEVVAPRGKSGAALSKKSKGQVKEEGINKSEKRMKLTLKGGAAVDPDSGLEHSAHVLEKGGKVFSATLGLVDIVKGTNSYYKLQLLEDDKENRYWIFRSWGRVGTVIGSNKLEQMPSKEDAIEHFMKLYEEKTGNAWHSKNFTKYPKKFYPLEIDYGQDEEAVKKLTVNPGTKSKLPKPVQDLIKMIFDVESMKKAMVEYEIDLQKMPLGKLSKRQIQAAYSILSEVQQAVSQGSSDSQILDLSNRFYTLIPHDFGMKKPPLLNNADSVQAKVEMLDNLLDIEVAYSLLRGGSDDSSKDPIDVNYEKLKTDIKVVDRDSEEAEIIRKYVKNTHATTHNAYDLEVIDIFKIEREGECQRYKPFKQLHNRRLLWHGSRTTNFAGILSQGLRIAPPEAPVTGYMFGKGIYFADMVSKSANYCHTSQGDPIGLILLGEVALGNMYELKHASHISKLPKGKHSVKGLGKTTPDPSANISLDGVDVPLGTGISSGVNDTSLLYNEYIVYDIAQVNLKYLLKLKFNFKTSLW

SMILES | IC50 [1] | IC50 [2] [µM] | IC50 [3] [µM] | IC50 [5] [µM] | Activity (HEK293) | also measured
CCc1c(C)nc(N2CCN(c3ccccc3F)CC2)nc1O | 0.72 µM and 0.724 µM | – | – | – | – | –
O=c1[nH]c(N2CCN(Cc3ccncc3)CC2)nc2c1CCCC2 | – | 4.2 | 0.37 | 33 | Non-toxic | IC50 [4]: > 10 µM; IC50 [6]: 5.4 µM
CN1CCN(c2nc3c(c(=O)[nH]2)CCCC3)CC1 | – | 3.6 | 6.3 | 17 | Non-toxic | IC50 [4]: > 10 µM; IC50 [6]: > 10 µM
CN1c2ncccc2C(=O)NC1c1ccc(NC(=O)C2CCOCC2)cc1 (centres undefined) | 6.6 µM | – | – | – | – | –
O=c1[nH]c(N2CCNCC2)nc2c1CCO2 | > 100 µM | – | – | – | – | –
O=C1NC(c2ccccc2Cl)Nc2ncccc21 (centres undefined) | 140 µM | – | – | – | – | –
CC(C)c1ccc(C2NC(=O)c3ccccc3N2)cc1 (centres undefined) | 0.23 µM and 0.234 µM | > 100 | 1.1 | > 100 | Non-toxic | IC50 [7]: > 100 µM; IC50 [8]: 50 µM; IC50 [9]: > 10 µM; IC50 [10]: > 10 µM
CC(C)(C)c1ccc(C2NC(=O)c3ccccc3N2)cc1 (centres undefined) | 0.15 µM and 0.155 µM | > 100 | 0.62 | > 100 | Non-toxic | IC50 [7]: > 100 µM; IC50 [8]: 34 µM; IC50 [9]: > 10 µM; IC50 [10]: > 10 µM

Continued, in another order:

IC50 [1] | IC50 [2] [µM] | IC50 [3] [µM] | IC50 [5] [µM] | SMILES | Activity (HEK293) | also measured
0.99 µM and 1 µM | – | – | – | COc1ccc(C2NC(=O)c3ccccc3N2)cc1 (centres undefined) | – | –
0.41 µM and 0.417 µM | – | – | – | O=C1NC(c2ccc(Cl)cc2)Nc2ccccc21 (centres undefined) | – | –
31.2 µM | – | – | – | O=C1NC(c2ccccc2Cl)Nc2ccccc21 (centres undefined) | – | –
7.3 µM and 7.24 µM | – | – | – | O=C1NC(c2cccc(OCc3ccccc3)c2)Nc2ccccc21 (centres undefined) | – | –
230 µM | – | – | – | O=C1NC(c2cccc(OCc3ccccc3)c2)Nc2ncccc21 (centres undefined) | – | –
